In ChEMBL document CHEMBL3085659, “Synthesis, antiproliferative and apoptosis-inducing activity of thiazolo[5,4-d]pyrimidines” (Eur J Med Chem, 2013):

What was measured:
Assay type in all cases: functional
[1] = system: A-431; assay: Antiproliferative activity against human A431 cells assessed as growth inhibition at 10 uM after 48 hrs by SRB assay; conditions: A-431, 48 h, read-out: GI
[2] = Antiproliferative activity against human MIAPaCa2 cells assessed as growth inhibition at 10 uM after 48 hrs by SRB assay; conditions: MIA PaCa-2, 48 h, read-out: GI
[3] = system: T98G; assay: Antiproliferative activity against human T98G cells assessed as growth inhibition at 10 uM after 48 hrs by SRB assay; conditions: read-out: GI
[4] = system: T47D; assay: Antiproliferative activity against human T47D cells assessed as growth inhibition at 10 uM after 48 hrs by SRB assay; conditions: read-out: GI
[5] = system: PC-3; assay: Antiproliferative activity against human PC3 cells assessed as growth inhibition at 10 uM after 48 hrs by SRB assay; conditions: PC-3, 48 h, read-out: GI
[6] = Antiproliferative activity against human NCI-H322 cells assessed as growth inhibition at 10 uM after 48 hrs by SRB assay; conditions: NCI-H322, 48 h, read-out: GI
[7] = system: A549; assay: Antiproliferative activity against human A549 cells assessed as growth inhibition at 10 uM after 48 hrs by SRB assay; conditions: A549, 48 h, read-out: GI
[8] = system: HL-60; assay: Antiproliferative activity against human HL60 cells assessed as growth inhibition at 10 uM after 48 hrs by SRB assay; conditions: HL-60, 48 h, read-out: GI

**Q.** For COc1ccc(Nc2nc3c(Cl)ncnc3s2)cc1, which inhibition of growth at 10 µM [1] is on record?
**A.** 9%

**Q.** And the inhibition of growth at 10 µM [2]?
**A.** 0%

**Q.** And the inhibition of growth at 10 µM [3]?
**A.** 4%

**Q.** What about the inhibition of growth at 10 µM [4] of the same compound?
**A.** 19%

**Q.** And the inhibition of growth at 10 µM [5]?
**A.** 26%

**Q.** And the inhibition of growth at 10 µM [6]?
**A.** 25%

**Q.** And the inhibition of growth at 10 µM [7]?
**A.** 0%

**Q.** What about the inhibition of growth at 10 µM [8] of the same compound?
**A.** 31%

**Q.** With CN(C)c1ncnc2sc(Nc3ccccc3)nc12 as the compound, how does the inhibition of growth at 10 µM [1] read?
**A.** 10%

**Q.** And the inhibition of growth at 10 µM [2]?
**A.** 9%

**Q.** And the inhibition of growth at 10 µM [3]?
**A.** 45%

**Q.** What about the inhibition of growth at 10 µM [4] of the same compound?
**A.** 31%

**Q.** And the inhibition of growth at 10 µM [5]?
**A.** 36%

**Q.** What about the inhibition of growth at 10 µM [6] of the same compound?
**A.** 18%

**Q.** And the inhibition of growth at 10 µM [7]?
**A.** 28%

**Q.** What about the inhibition of growth at 10 µM [8] of the same compound?
**A.** 28%

**Q.** What does the source list for Clc1ccc(Nc2nc3c(N4CCCCC4)ncnc3s2)cc1?
**A.** inhibition of growth at 10 µM [1]: 22%; inhibition of growth at 10 µM [2]: 1%; inhibition of growth at 10 µM [3]: 45%; inhibition of growth at 10 µM [4]: 8%; inhibition of growth at 10 µM [5]: 2%; inhibition of growth at 10 µM [6]: 63%; inhibition of growth at 10 µM [7]: 57%; inhibition of growth at 10 µM [8]: 21%

**Q.** For Clc1ccc(Nc2nc3c(N4CCOCC4)ncnc3s2)cc1, which inhibition of growth at 10 µM [1] is on record?
**A.** 0%

**Q.** And the inhibition of growth at 10 µM [2]?
**A.** 21%

**Q.** What about the inhibition of growth at 10 µM [3] of the same compound?
**A.** 22%

**Q.** And the inhibition of growth at 10 µM [4]?
**A.** 40%

**Q.** And the inhibition of growth at 10 µM [5]?
**A.** 39%

**Q.** What about the inhibition of growth at 10 µM [6] of the same compound?
**A.** 42%

**Q.** And the inhibition of growth at 10 µM [7]?
**A.** 24%

**Q.** What about the inhibition of growth at 10 µM [8] of the same compound?
**A.** 33%

**Q.** Which results are given for CN(C)c1ncnc2sc(Nc3ccc(Cl)cc3)nc12?
**A.** inhibition of growth at 10 µM [1]: 0%; inhibition of growth at 10 µM [2]: 28%; inhibition of growth at 10 µM [3]: 23%; inhibition of growth at 10 µM [4]: 21%; inhibition of growth at 10 µM [5]: 28%; inhibition of growth at 10 µM [6]: 6%; inhibition of growth at 10 µM [7]: 23%; inhibition of growth at 10 µM [8]: 39%

**Q.** With CN1CCN(c2ncnc3sc(Nc4ccc(Cl)cc4)nc23)CC1 as the compound, how does the inhibition of growth at 10 µM [1] read?
**A.** 21%

**Q.** And the inhibition of growth at 10 µM [2]?
**A.** 5%

**Q.** What about the inhibition of growth at 10 µM [3] of the same compound?
**A.** 20%

**Q.** And the inhibition of growth at 10 µM [4]?
**A.** 21%

**Q.** And the inhibition of growth at 10 µM [5]?
**A.** 18%

**Q.** And the inhibition of growth at 10 µM [6]?
**A.** 10%

**Q.** What about the inhibition of growth at 10 µM [7] of the same compound?
**A.** 18%

**Q.** And the inhibition of growth at 10 µM [8]?
**A.** 20%

**Q.** For Clc1ncnc2sc(Nc3ccccc3)nc12, which inhibition of growth at 10 µM [1] is on record?
**A.** 1%

**Q.** And the inhibition of growth at 10 µM [2]?
**A.** 4%

**Q.** And the inhibition of growth at 10 µM [3]?
**A.** 1%

**Q.** What about the inhibition of growth at 10 µM [4] of the same compound?
**A.** 22%

**Q.** And the inhibition of growth at 10 µM [5]?
**A.** 20%

**Q.** What about the inhibition of growth at 10 µM [6] of the same compound?
**A.** 0%

**Q.** And the inhibition of growth at 10 µM [7]?
**A.** 3%

**Q.** What about the inhibition of growth at 10 µM [8] of the same compound?
**A.** 21%

**Q.** With c1ccc(Nc2nc3c(N4CCCCC4)ncnc3s2)cc1 as the compound, how does the inhibition of growth at 10 µM [1] read?
**A.** 22%

**Q.** And the inhibition of growth at 10 µM [2]?
**A.** 17%

**Q.** What about the inhibition of growth at 10 µM [3] of the same compound?
**A.** 42%

**Q.** And the inhibition of growth at 10 µM [4]?
**A.** 31%

**Q.** What about the inhibition of growth at 10 µM [5] of the same compound?
**A.** 2%

**Q.** And the inhibition of growth at 10 µM [6]?
**A.** 41%

**Q.** What about the inhibition of growth at 10 µM [7] of the same compound?
**A.** 54%

**Q.** What about the inhibition of growth at 10 µM [8] of the same compound?
**A.** 22%
